Laboratory results taken from US20050123917A1, “Method for characterising and/or identifying active mechanisms of antimicrobial test substances” (priority 2001, published 2005).
Values after ≈ are worked out from the molar mass of the structure shown. Starred links: 1 amine or outer side, 2 acyl side, 3 side chain; linkers in the order of their positions; H or OH if unused. Positions of bridges follow the written chain, without caps; N, C: chain ends. Non-standard residues stand in square brackets, D forms with d. Residues, ends and D or L forms follow the SMILES beside them. Chains are numbered I, II in the order given. Actinocin(9to1) = Cc1c2oc3c(C)ccc(C(=O)[*:1])c3nc-2c(C(=O)[*:2])c(N)c1=O; NMeV = CN[C@H](C(=O)O)C(C)C; Orn = NCCC[C@H](N)C(=O)O; Sar = CNCC(=O)O

What follows are molecules tested on Bacillus subtilis 168 (assay: Determination of the minimum inhibiting agent concentration (MIC)). Conditions: B. subtilis 168, Belitsky Minimal Medium, 18-24 hrs at 37° C.
Format: cell-based
Method: The test substance may be an inhibiting agent. The concentration of inhibiting agent with which the bacterial culture is treated should preferably be in the range of 0.1× to 20× the minimum inhibiting agent concentration (MIC) for the test substance. The minimum inhibiting agent concentration is the minimum concentration of an antibiotic which inhibits the growth of a test germ over a period of 18-24 hours. The inhibiting agent concentration can therefore be determined according to standard microbiological procedures (see for example The-National Committee for Clinical Laboratory Standards. Methods for dilution antimicrobial susceptibility tests for bacteria that grow aerobically; approved standard-fifth edition. NCCLS document M7-A5 [ISBN 1-56238-394-9]. NCCLS, 940 West Valley Road, Suite 1400, Wayne, Pa. 19087-1898 USA, 2000.). The test spectra are recorded from a microbial culture that has been treated with the inhibiting agent in one, or preferably in several concentrations.
For the production of an overnight culture, 22 ml of Belitsky Minimal Medium (Stuhlke et al. (1993) Temporal activation of beta-glucauase synthesis in Bacillus subtilis is mediated by the GTP pool. J. Gen. Microbiol. 1993 Sep; 139 (pt 9):2041-5) was injected with an aliquot of the test germ Bacillus subtilis 168 from a permanent culture stored at −80° C., and incubated at 37° C. and 200 rpm.

Point of comparison: CC1(C)S[C@@H]2[C@H](NC(=O)Cc3ccccc3)C(=O)N2[C@H]1C(=O)O [penicillin G], MIC 4 µg/mL (≈ 12 µM). Against it:
- gramicidin A — the same, 4 µg/mL
- enniatin — 4-fold higher, 16 µg/mL
- gentamicin — 32-fold lower, 0.125 µg/mL
- CC(C)C[C@@H]1NC(=O)[C@H](CCCN)NC(=O)[C@H](C(C)C)NC(=O)[C@@H]2CCCN2C(=O)[C@@H](Cc2ccccc2)NC(=O)[C@H](CC(C)C)NC(=O)[C@H](CCCN)NC(=O)[C@H](C(C)C)NC(=O)[C@@H]2CCCN2C(=O)[C@@H](Cc2ccccc2)NC1=O [gramicidin S] (cyclo(V[Orn]L[dF]PV[Orn]L[dF]P)) — 4-fold lower, 1 µg/mL (≈ 0.876 µM)
- neomycin — 32-fold lower, 0.125 µg/mL
- polymyxin B-sulfate — 4-fold higher, 16 µg/mL
- ramoplanin — 4-fold lower, 1 µg/mL
- CO[C@@]12[C@H](COC(N)=O)C3=C(C(=O)C(C)=C(N)C3=O)N1C[C@@H]1N[C@@H]12 [mitomycin C] — 16-fold lower, 0.25 µg/mL (≈ 0.748 µM)
- O=c1[nH]c(=O)n([C@H]2C[C@H](O)[C@@H](CO)O2)cc1F [5-fluor-2-desoxyuridine] — 16-fold lower, 0.25 µg/mL (≈ 1.02 µM)
- CN(C)[C@@H]1C(=O)C(C(N)=O)=C(O)[C@@]2(O)C(=O)C3=C(O)c4c(O)cccc4[C@@](C)(O)[C@H]3C[C@@H]12 [tetracyclin] — 4-fold higher, 16 µg/mL (≈ 36 µM)
- Cc1c2oc3c(C)ccc(C(=O)N[C@@H]4C(=O)N[C@H](C(C)C)C(=O)N5CCC[C@H]5C(=O)N(C)CC(=O)N(C)[C@@H](C(C)C)C(=O)O[C@@H]4C)c3nc-2c(C(=O)N[C@@H]2C(=O)N[C@H](C(C)C)C(=O)N3CCC[C@H]3C(=O)N(C)CC(=O)N(C)[C@@H](C(C)C)C(=O)O[C@@H]2C)c(N)c1=O [actinomycin D] (I: T[dV]P[Sar][NMeV] / II: T[dV]P[Sar][NMeV]; ester I:1-I:C, II:1-II:C; linker I:N-II:N via Actinocin(9to1)) — 4-fold lower, 1 µg/mL (≈ 0.797 µM)
- teichoplanin — 32-fold lower, 0.125 µg/mL
- ristocetin — 8-fold lower, 0.5 µg/mL
- mersacidin — 4-fold higher, 16 µg/mL
- CC[n+]1c(-c2ccccc2)c2cc(N)ccc2c2ccc(N)cc21.[Br-] [ethidiumbromid] — the same, 4 µg/mL
- N[C@@H]1CONC1=O [D-cycloserine] — 16-fold higher, 64 µg/mL (≈ 627 µM)

Same assay, conditions: Bacillus subtilis, 168

CN[C@H](CC(C)C)C(=O)N[C@H]1C(=O)N[C@@H](CC(N)=O)C(=O)N[C@H]2C(=O)N[C@H]3C(=O)N[C@H](C(=O)N[C@H](C(=O)O)c4cc(O)cc(O)c4-c4cc3ccc4O)[C@H](O)c3ccc(c(Cl)c3)Oc3cc2cc(c3O[C@@H]2O[C@H](CO)[C@@H](O)[C@H](O)[C@H]2O[C@H]2C[C@](C)(N)[C@H](O)[C@H](C)O2)Oc2ccc(cc2Cl)[C@H]1O [vancomycin] showed an MIC of 0.25 µg/mL (≈ 0.173 µM).

Same assay, conditions: Bacillus subtilis; B. subtilis 168, Belitsky Minimal Medium, 18-24 hrs at 37° C.; read-out: MIC

Point of comparison: C/C(=C\C(=O)OCCCCCCCCC(=O)O)C[C@@H]1OC[C@H](C[C@@H]2O[C@H]2[C@@H](C)[C@H](C)O)[C@@H](O)[C@H]1O [mupirocin], MIC 0.0625 µg/mL (≈ 0.125 µM). Against it:
- COc1cc(Cc2cnc(N)nc2N)cc(OC)c1OC [trimethoprim] — 8-fold higher, 0.5 µg/mL (≈ 1.72 µM)
- Nc1ccc2cc3ccc(N)cc3nc2c1 [proflavin] — 130-fold higher, 8 µg/mL (≈ 38.2 µM)
- NC[C@H]1O[C@H](O[C@H]2[C@H](O)[C@@H](O[C@H]3O[C@H](CO)[C@@H](O)[C@H](N)[C@H]3O)[C@H](N)C[C@@H]2N)[C@H](O)[C@@H](O)[C@@H]1O [kanamycin] — 8-fold higher, 0.5 µg/mL (≈ 1.03 µM)
- [H]/N=C(/N)N[C@H]1[C@H](O)[C@@H](O)[C@H](O[C@@H]2O[C@@H](C)[C@](O)(C=O)[C@H]2O[C@@H]2O[C@@H](CO)[C@H](O)[C@@H](O)[C@@H]2NC)[C@@H](N/C(N)=N\[H])[C@@H]1O [streptomycin] — 2000-fold higher, 128 µg/mL (≈ 220 µM)
- CO[C@@]1(NC(=O)C(C(=O)O)c2ccc(O)cc2)C(=O)N2C(C(=O)O)=C(CSc3nnnn3C)CO[C@@H]21 (some centres unmarked) [moxalactam] — 64-fold higher, 4 µg/mL (≈ 7.69 µM)
- CC[C@@H](C(=O)[C@@H](C)[C@@H](O)[C@H](C)CCc1ccc(C)c(O)c1C(=O)O)[C@H]1O[C@](CC)([C@H]2CC[C@](O)(CC)[C@H](C)O2)C[C@@H]1C [lasalocid] — 16-fold higher, 1 µg/mL (≈ 1.69 µM)
- CC[C@@]1([C@@H]2O[C@@H]([C@H]3O[C@@](O)(CO)[C@H](C)C[C@@H]3C)C[C@@H]2C)CC[C@H]([C@]2(C)CC[C@]3(C[C@H](O)[C@@H](C)[C@@H]([C@@H](C)[C@@H](OC)[C@H](C)C(=O)O)O3)O2)O1 [monensin] — 64-fold higher, 4 µg/mL (≈ 5.96 µM)
- COc1cccc(OC)c1C(=O)N[C@@H]1C(=O)N2[C@@H]1SC(C)(C)[C@@H]2C(=O)O [methicillin] — 2-fold higher, 0.125 µg/mL (≈ 0.329 µM)
- CC[C@H]1OC(=O)[C@H](C)[C@@H](O[C@H]2C[C@@](C)(OC)[C@@H](O)[C@H](C)O2)[C@H](C)[C@@H](O[C@@H]2O[C@H](C)C[C@H](N(C)C)[C@H]2O)[C@](C)(OC)C[C@@H](C)C(=O)[C@H](C)[C@@H](O)[C@]1(C)O [clarithromycin] — the same, 0.0625 µg/mL (≈ 0.0836 µM)
- CCn1cc(C(=O)O)c(=O)c2ccc(C)nc21 [nalidixic acid] — 510-fold higher, 32 µg/mL (≈ 138 µM)
- O=c1[nH]cc(F)c(=O)[nH]1 [5-fluoro-uracile] — 4-fold higher, 0.25 µg/mL (≈ 1.92 µM)
- C/C=C/C/C=C/CCC(=O)[C@H]1O[C@H]1C(N)=O [cerulenin] — 260-fold higher, 16 µg/mL (≈ 71.7 µM)
- O=C1CN(/N=C/c2ccc([N+](=O)[O-])o2)C(=O)N1 [nitrofurantoin] — 260-fold higher, 16 µg/mL (≈ 67.2 µM)
- NC[C@H]1O[C@H](O[C@H]2[C@H](O)[C@@H](O[C@H]3O[C@H](CO)[C@@H](O)[C@H](N)[C@H]3O)[C@H](N)C[C@@H]2N)[C@H](N)C[C@@H]1O [tobramycin] — the same, 0.0625 µg/mL (≈ 0.134 µM)
- CC(=O)O[C@H]1C[C@@]2(C)[C@@H](C[C@@H](O)[C@H]3[C@@]4(C)CC[C@@H](O)[C@@H](C)[C@@H]4CC[C@@]32C)/C1=C(\CCC=C(C)C)C(=O)O [fusidic acid] — 8-fold higher, 0.5 µg/mL (≈ 0.968 µM)
- COc1cccc2c1C(=O)c1c(O)c3c(c(O)c1C2=O)C[C@@](O)(C(=O)CO)C[C@@H]3O[C@H]1C[C@H](N)[C@H](O)[C@H](C)O1 [doxorubicin] — 130-fold higher, 8 µg/mL (≈ 14.7 µM)
- CO[C@@H]1[C@@H](OC(N)=O)[C@@H](O)[C@H](Oc2ccc3c(O)c(NC(=O)c4ccc(O)c(CC=C(C)C)c4)c(=O)oc3c2C)OC1(C)C [novobiocin] — 32-fold higher, 2 µg/mL (≈ 3.26 µM)
- CO[C@@]1(NC(=O)Cc2cccs2)C(=O)N2C(C(=O)O)=C(COC(N)=O)CS[C@@H]21 [cefoxitin] — 32-fold higher, 2 µg/mL (≈ 4.68 µM)
- CO[C@H]1/C=C/O[C@@]2(C)Oc3c(C)c(O)c4c(O)c(c(/C=N/N5CCN(C)CC5)c(O)c4c3C2=O)NC(=O)/C(C)=C\C=C\[C@H](C)[C@H](O)[C@@H](C)[C@@H](O)[C@@H](C)[C@H](OC(C)=O)[C@@H]1C [rifampicin] — 4-fold higher, 0.25 µg/mL (≈ 0.304 µM)
- CO[C@@H]1C[C@@H](C[C@H]2CC[C@H](C)[C@H]([C@@H](C)C(=O)O)O2)O[C@]2(O[C@](C)([C@H]3CC[C@@](C)([C@@H]4O[C@@H]([C@H]5O[C@@](O)(CO)[C@H](C)C[C@@H]5C)C[C@@H]4C)O3)C[C@H]2C)[C@@H]1C [nigericin] — 16-fold higher, 1 µg/mL (≈ 1.38 µM)
- CCC[C@@H]1C[C@@H](C(=O)N[C@@H]([C@H]2O[C@H](SC)[C@H](O)[C@@H](O)[C@H]2O)[C@H](C)Cl)N(C)C1 [clindamycin] — 32-fold higher, 2 µg/mL (≈ 4.71 µM)
- COc1ccc(C[C@H](N)C(=O)N[C@H]2[C@@H](O)[C@H](n3cnc4c(N(C)C)ncnc43)O[C@@H]2CO)cc1 [puromycin] — 130-fold higher, 8 µg/mL (≈ 17 µM)
- CN[C@@H]1[C@H](O)[C@H](NC)[C@H]2O[C@@]3(O)C(=O)C[C@@H](C)O[C@H]3O[C@@H]2[C@H]1O [spectinomycin] — 260-fold higher, 16 µg/mL (≈ 48.1 µM)
- [N-]=[N+]=CC(=O)OC[C@H](N)C(=O)O [azaserine] — 64-fold higher, 4 µg/mL (≈ 23.1 µM)
- CC[C@H]1OC(=O)[C@H](C)[C@@H](O[C@H]2C[C@@](C)(OC)[C@@H](O)[C@H](C)O2)[C@H](C)[C@@H](O[C@@H]2O[C@H](C)C[C@H](N(C)C)[C@H]2O)[C@](C)(O)C[C@@H](C)CN(C)[C@H](C)[C@@H](O)[C@]1(C)O [azithromycin] — 16-fold higher, 1 µg/mL (≈ 1.34 µM)
- CC[C@H]1OC(=O)[C@H](C)[C@@H](O[C@H]2C[C@@](C)(OC)[C@@H](O)[C@H](C)O2)[C@H](C)[C@@H](O[C@@H]2O[C@H](C)C[C@H](N(C)C)[C@H]2O)[C@](C)(O)C[C@@H](C)C(=O)[C@H](C)[C@@H](O)[C@]1(C)O [erythromycin] — 8-fold higher, 0.5 µg/mL (≈ 0.681 µM)
- O=C(N[C@H](CO)[C@H](O)c1ccc([N+](=O)[O-])cc1)C(Cl)Cl [chloramphenicol] — 64-fold higher, 4 µg/mL (≈ 12.4 µM)
- Cc1onc(-c2ccccc2)c1C(=O)N[C@@H]1C(=O)N2[C@@H]1SC(C)(C)[C@@H]2C(=O)O [oxacillin] — 8-fold higher, 0.5 µg/mL (≈ 1.25 µM)
